{"source": "patent US20180333399A1", "about": "“METHOD OF IMPROVING LIVER FUNCTION” (NAIA METABOLIC, INC., priority 2012, published 2018)", "key": {"[1]": {"tested_on": "db/db mice", "assay": "Hepatic lipid content (modified Folch extraction) in db/db mice", "format": "in vivo", "method": "(§1) All reagents were purchased from Sigma-Aldrich (Australia). Dosing solutions of methazolamide were prepared fresh daily in sterile saline:PEG400 at 65:35 (v/v), protected from light and stored at room temperature. Male db/db mice (Animal Resource Centre, Australia) were housed with free access to water and food (standard rodent diet: Barastoc Rat & Mouse, Ridley Agriproducts, Australia). Room temperature was maintained at 21±2° C., humidity 40-70%, with a 12 h light/dark cycle. Mice were treated with methazolamide (50 mg/kg/day) or vehicle (n=4 per group) by single oral gavage doses each day for 9 days.\nA separate portion of the liver (right lobe) was used to measure hepatic lipid content. Lipid was extracted using a modified Folch protocol. The tissue was homogenised in 2:1 chloroform/methanol solution (10 ml), and filtered into a […] glass centrifuge tube. An additional 5 ml of 2:1 chloroform/methanol solution was added, followed by 2.5 ml of 0.9% NaCl. After thorough mixing, the extract was centrifuged for 5 min at 2,000 g at 10° C. After discarding the aqueous layer, the organic layer was dried under nitrogen, and total lipid content was assessed by weighing."}, "[2]": {"tested_on": "db/db mice", "assay": "Fasting blood glucose in db/db mice, 9 days oral gavage", "format": "in vivo", "method": "as §1\n(§2) Daily blood samples were obtained from the tail tip of each mouse and glucose levels measured using a glucometer (AccuCheck II; Roche, Australia). At the end of the study, the animals were humanely killed and a portion of liver tissue (left lobe) was removed and fixed in 10% neutral-buffered formalin. The liver tissue was paraffin-embedded, sectioned (5 μm), mounted and stained with hematoxylin and eosin."}, "[3]": {"tested_on": "db/db mice", "assay": "Liver histology (hematoxylin and eosin) in db/db mice", "format": "in vivo", "details": "after 9 days, 50 mg/kg/day; 3 of the 4 vehicle-treated animals had a high degree of hepatic steatosis", "method": "as §1, §2"}, "[4]": {"tested_on": "type 2 diabetes patients", "assay": "24 week randomised, placebo-controlled double-blind clinical trial: blood ALT levels", "format": "in vivo, human", "details": "for ΔALT Week 12, Mean ± SD / ΔALT Week 12, Median (range): change from baseline (Day 0) to Week 12; for ΔALT Week 12, Mean ± SD / ΔALT Week 12, Median (range) / ΔALT Week 24, Mean ± SD / ΔALT Week 24, Median (range): 40 mg b.i.d.; for ΔALT Week 24, Mean ± SD / ΔALT Week 24, Median (range): change from baseline (Day 0) to Week 24; for ΔALT Week 12, MTZ-Placebo / ΔALT Week 24, MTZ-Placebo: difference of mean ΔALT versus matching placebo group", "text": "The primary efficacy endpoint for the clinical trial was a reduction in HbA1c (ΔHbA1c) from baseline with methazolamide, relative to placebo, after 24 weeks of treatment. The primary safety measurement was the effect of methazolamide, compared to placebo, on venous blood gas parameters; a measure of acidosis. The clinical trial initially enrolled type 2 diabetes patients who were not treated with any anti-diabetic agent prior to entry into the trial. […] The metformin dose was not altered throughout the trial. Participant baseline demographic data are provided in Table 1-1, Participants randomized into the clinical trial were administered either daily doses of methazolamide (40 mg b.i.d.) or placebo for 24 weeks. Methazolamide was taken as 1×30 mg capsule and 1×10 mg capsule per dose at breakfast and dinner. Placebo (microcrystalline cellulose) was administered in identical presentation. […] Mean ALT levels over time are depicted in FIGS. 1(A) and 1(B)."}, "[5]": {"details": "Week 12, methazolamide 40 mg b.i.d., listed as All MTZ (Alone + Met)"}, "[6]": {"details": "methazolamide 40 mg b.i.d., listed as All MTZ (Alone + Met)"}, "[7]": {"details": "methazolamide 40 mg b.i.d., listed as MTZ Alone"}, "[8]": {"details": "baseline (Day 0), before treatment, type 2 diabetes patients, listed as MTZ Alone"}, "[9]": {"details": "listed as All MTZ (Alone + Met)"}}, "note": "Marks after values point to notes of the source that are not given here.", "data": [{"smiles": "CC(=O)/N=c1/sc(S(N)(=O)=O)nn1C", "note": "[methazolamide]", "values": [{"measurement": "Liver lipid content (% of liver weight), Day 9", "setting": "[1]; Day 9, 50 mg/kg/day oral gavage, p < 0.05 vs vehicle", "result": "7.4 ± 1.2", "unit": "%"}, {"measurement": "liver lipid content (w/w) lower compared to vehicle treated controls", "setting": "[1]; after 9 days of treatment, db/db mice", "result": 48, "unit": "%"}, {"measurement": "Fasting Blood Glucose, Day 0", "setting": "[2]; Day 0 (baseline), male db/db mice, n=4", "result": "26.0 ± 1.2", "unit": "mM"}, {"measurement": "Fasting Blood Glucose, Day 9", "setting": "[2]; Day 9, 50 mg/kg/day oral gavage, p < 0.05 vs Day 0", "result": "13.7 ± 2.4", "unit": "mM"}, {"measurement": "reduction of fasting blood glucose levels relative to vehicle treated-controls", "setting": "[2]; db/db mice, 50 mg/kg/day, 9 days", "result": 47, "unit": "%"}, {"measurement": "treated db/db mice that appeared to have greatly reduced hepatic steatosis (liver histology)", "setting": "[3]", "result": "2 of the 4"}, {"measurement": "ALT Week 12, Mean ± SD", "setting": "[4]; [5]", "result": "20.9 ± 9.8", "unit": "U/L"}, {"measurement": "ALT Week 12, Median (range)", "setting": "[4]; [5]", "result": "19 (8-50) U/L"}, {"measurement": "ALT Week 12, Mean ± SD", "setting": "[4]; Week 12, methazolamide 40 mg b.i.d., listed as MTZ Alone", "result": "22.1 ± 10.1", "unit": "U/L"}, {"measurement": "ALT Week 24, Mean ± SD", "setting": "[4]; [6]", "result": "21.3 ± 12.3", "unit": "U/L"}, {"measurement": "ALT Week 24, Median (range)", "setting": "[4]; [6]", "result": "20 (7-64) U/L"}, {"measurement": "ALT Week 24, Mean ± SD", "setting": "[4]; [7]", "result": "22.0 ± 12.6", "unit": "U/L"}, {"measurement": "ALT Week 24, Median (range)", "setting": "[4]; [7]", "result": "17 (9-49) U/L"}, {"measurement": "ALT Day 0, Median (range)", "setting": "[4]; baseline (Day 0), before treatment, type 2 diabetes patients, listed as All MTZ (Alone + Met)", "result": "27.5 (16-83) U/L"}, {"measurement": "ALT Day 0, Mean ± SD", "setting": "[4]; [8]", "result": "33.1 ± 16.9", "unit": "U/L"}, {"measurement": "ALT Day 0, Median (range)", "setting": "[4]; [8]", "result": "29 (16-83) U/L"}, {"measurement": "ΔALT Week 12, Mean ± SD", "setting": "[4]; [9]", "result": "−10.9 ± 7.7"}, {"measurement": "ΔALT Week 12, Median (range)", "setting": "[4]; [9]", "result": "−9 (−40, −2)"}, {"measurement": "ΔALT Week 12, Mean ± SD", "setting": "[4]; listed as MTZ Alone", "result": "−10.4 ± 9.3"}, {"measurement": "ΔALT Week 12, Median (range)", "setting": "[4]; listed as MTZ Alone", "result": "−8.5 (−40, −4)"}, {"measurement": "ΔALT Week 24, Mean ± SD", "setting": "[4]; [9]", "result": "−10.7 ± 8.2"}, {"measurement": "ΔALT Week 24, Median (range)", "setting": "[4]; [9]", "result": "−8.5 (−34, +4)"}, {"measurement": "ΔALT Week 24, Mean ± SD", "setting": "[4]; listed as MTZ Alone", "result": "−11.0 ± 8.1"}, {"measurement": "ΔALT Week 24, Median (range)", "setting": "[4]; listed as MTZ Alone", "result": "−8 (−34, −3)"}, {"measurement": "ΔALT Week 12, MTZ-Placebo", "setting": "[4]; Week 12, listed as All MTZ (Alone + Met)", "result": "−14.8*^§"}, {"measurement": "ΔALT Week 12, MTZ-Placebo", "setting": "[4]; Week 12, listed as MTZ Alone", "result": "−18.1"}, {"measurement": "ΔALT Week 24, MTZ-Placebo", "setting": "[4]; [9]", "result": "−9.3^†§"}, {"measurement": "ΔALT Week 24, MTZ-Placebo", "setting": "[4]; listed as MTZ Alone", "result": "−8.0"}, {"measurement": "time of treatment after which reduction in blood ALT levels was evident", "setting": "[4]; patients treated with methazolamide", "result": 1, "unit": "week"}, {"measurement": "time of treatment after which reduced ALT level reached a plateau", "setting": "[4]; plateau maintained for the remainder of the 24 week treatment period", "result": 2, "unit": "weeks"}]}]}
